# Laboratory results: ChEMBL document CHEMBL1201862, “PubChem BioAssay data set” (2004)
# Activity calls are given as the source filed them.
# How the values were obtained:
# [1] = tested on: Vero; experiment: cytotoxicity of synthesized analogs in Vero 76, SAR follow-up, cytotoxicity control for West Nile virus antiviral project, Vero 76 cells (AID 2414); format: functional; conditions: Chlorocebus sabaeus
# [2] = tested on: Vero; experiment: cytotoxicity of synthesized analogs in Vero cells, SAR follow-up, cytotoxicity control for West Nile virus antiviral project, cell-based, set II (AID 2402); format: functional; conditions: Chlorocebus sabaeus
# [3] = tested on: Vero; experiment: Vero E6 cell cytotoxicity, SAR follow-up, cytotoxicity control for West Nile virus antiviral project, synthesized analogs (AID 2244); format: functional; conditions: Chlorocebus sabaeus
# [4] = A Cell Based Assay for the Identification of Probe candidate Compounds with Anti- Venezuelan Equine Encephalitis virus. [Related pubchem assays: 2409, 2419, 1621, 2238, 2405, 2024, 2065, 2402, 2414, 1635, 1650, 2244 ]; format: functional
# [5] = tested on: Vero; experiment: West Nile virus CPE inhibition, SAR follow-up, cell-based, synthesized analogs (AID 2238); format: functional; conditions: Chlorocebus sabaeus
# [6] = tested on: Vero; experiment: West Nile virus cytopathic effect inhibition, cell-based (AID 2419); format: functional; conditions: Chlorocebus sabaeus
# [7] = tested on: Vero; experiment: West Nile virus antiviral activity, cell-based, CPE readout (AID 1621); format: functional; conditions: Chlorocebus sabaeus
# [8] = THP-1 cell cytotoxicity, dose response, cytotoxicity control for non-replicating M. tuberculosis project (AID 489025); format: functional
# [9] = HepG2 cell cytotoxicity, dose response, cytotoxicity control for non-replicating M. tuberculosis project (AID 489018); format: functional; conditions: Mycobacterium tuberculosis
# [10] = biological target: T1, Ubiquitin-conjugating enzyme E2 N (Homo sapiens, UniProt P61088); format: functional;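 also: Dose-response confirmation in a TR-FRET assay detecting UBC13-driven polyubiquitin chain formation, inhibition measured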
# T1 sequence (P61088 whole entry): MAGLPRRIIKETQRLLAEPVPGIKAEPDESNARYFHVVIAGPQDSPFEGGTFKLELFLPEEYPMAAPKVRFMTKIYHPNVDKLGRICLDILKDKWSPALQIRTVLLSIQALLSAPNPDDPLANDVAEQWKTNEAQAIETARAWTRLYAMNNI
# [11] = Vero E6 cell cytotoxicity, dose response, cytotoxicity control for non-replicating M. tuberculosis project, secondary assay (AID 492998); format: functional, VeroE6; conditions: Vero C1008
# [12] = biological target: Nonstructural protein 1 (Influenza A virus, UniProt Q194T2); format: functional, Influenza A virus (A/California/07/2009(H1N1))
# Sequence of Nonstructural protein 1 (Q194T2 whole entry): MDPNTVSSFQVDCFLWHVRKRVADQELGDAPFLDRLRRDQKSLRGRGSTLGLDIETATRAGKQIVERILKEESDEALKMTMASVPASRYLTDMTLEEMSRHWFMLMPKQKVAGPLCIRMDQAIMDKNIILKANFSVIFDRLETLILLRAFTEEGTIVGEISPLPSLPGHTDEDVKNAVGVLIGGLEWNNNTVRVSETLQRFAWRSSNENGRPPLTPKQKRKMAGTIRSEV
# [13] = cells; format: functional
# [14] = biological target: T2, Replicative DNA helicase DnaB (Mycobacterium tuberculosis, UniProt P9WMR3); experiment: DnaB intein splicing inhibitors, dose response, biochemical, cell-free fluorescence (AID 449749); format: functional
# T2 sequence (P9WMR3 whole entry): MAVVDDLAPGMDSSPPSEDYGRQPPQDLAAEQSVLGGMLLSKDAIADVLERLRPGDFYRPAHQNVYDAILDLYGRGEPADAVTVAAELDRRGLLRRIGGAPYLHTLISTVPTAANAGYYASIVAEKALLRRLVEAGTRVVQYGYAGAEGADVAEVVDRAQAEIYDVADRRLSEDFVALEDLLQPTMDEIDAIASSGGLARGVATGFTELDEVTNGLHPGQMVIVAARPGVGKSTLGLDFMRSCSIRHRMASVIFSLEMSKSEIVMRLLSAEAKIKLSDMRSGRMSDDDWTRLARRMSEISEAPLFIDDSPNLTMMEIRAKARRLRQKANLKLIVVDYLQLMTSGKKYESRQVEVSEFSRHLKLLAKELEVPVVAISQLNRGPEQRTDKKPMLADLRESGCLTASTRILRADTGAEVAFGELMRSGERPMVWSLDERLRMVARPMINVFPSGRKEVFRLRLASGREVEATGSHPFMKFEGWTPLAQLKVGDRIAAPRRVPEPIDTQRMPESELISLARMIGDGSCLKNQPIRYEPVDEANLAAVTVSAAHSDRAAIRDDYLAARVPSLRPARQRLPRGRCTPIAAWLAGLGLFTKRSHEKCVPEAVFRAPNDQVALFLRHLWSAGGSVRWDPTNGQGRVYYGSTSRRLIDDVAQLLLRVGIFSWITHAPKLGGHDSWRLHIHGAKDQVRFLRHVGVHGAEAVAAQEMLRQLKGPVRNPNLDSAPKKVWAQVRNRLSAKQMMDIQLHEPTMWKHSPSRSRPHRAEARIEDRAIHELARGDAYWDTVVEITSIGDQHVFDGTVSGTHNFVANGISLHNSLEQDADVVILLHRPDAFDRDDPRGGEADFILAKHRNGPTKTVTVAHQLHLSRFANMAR
# [15] = biological target: T3, Apoptotic protease-activating factor 1 (Homo sapiens, UniProt O14727); format: functional
# T3 sequence (O14727 whole entry): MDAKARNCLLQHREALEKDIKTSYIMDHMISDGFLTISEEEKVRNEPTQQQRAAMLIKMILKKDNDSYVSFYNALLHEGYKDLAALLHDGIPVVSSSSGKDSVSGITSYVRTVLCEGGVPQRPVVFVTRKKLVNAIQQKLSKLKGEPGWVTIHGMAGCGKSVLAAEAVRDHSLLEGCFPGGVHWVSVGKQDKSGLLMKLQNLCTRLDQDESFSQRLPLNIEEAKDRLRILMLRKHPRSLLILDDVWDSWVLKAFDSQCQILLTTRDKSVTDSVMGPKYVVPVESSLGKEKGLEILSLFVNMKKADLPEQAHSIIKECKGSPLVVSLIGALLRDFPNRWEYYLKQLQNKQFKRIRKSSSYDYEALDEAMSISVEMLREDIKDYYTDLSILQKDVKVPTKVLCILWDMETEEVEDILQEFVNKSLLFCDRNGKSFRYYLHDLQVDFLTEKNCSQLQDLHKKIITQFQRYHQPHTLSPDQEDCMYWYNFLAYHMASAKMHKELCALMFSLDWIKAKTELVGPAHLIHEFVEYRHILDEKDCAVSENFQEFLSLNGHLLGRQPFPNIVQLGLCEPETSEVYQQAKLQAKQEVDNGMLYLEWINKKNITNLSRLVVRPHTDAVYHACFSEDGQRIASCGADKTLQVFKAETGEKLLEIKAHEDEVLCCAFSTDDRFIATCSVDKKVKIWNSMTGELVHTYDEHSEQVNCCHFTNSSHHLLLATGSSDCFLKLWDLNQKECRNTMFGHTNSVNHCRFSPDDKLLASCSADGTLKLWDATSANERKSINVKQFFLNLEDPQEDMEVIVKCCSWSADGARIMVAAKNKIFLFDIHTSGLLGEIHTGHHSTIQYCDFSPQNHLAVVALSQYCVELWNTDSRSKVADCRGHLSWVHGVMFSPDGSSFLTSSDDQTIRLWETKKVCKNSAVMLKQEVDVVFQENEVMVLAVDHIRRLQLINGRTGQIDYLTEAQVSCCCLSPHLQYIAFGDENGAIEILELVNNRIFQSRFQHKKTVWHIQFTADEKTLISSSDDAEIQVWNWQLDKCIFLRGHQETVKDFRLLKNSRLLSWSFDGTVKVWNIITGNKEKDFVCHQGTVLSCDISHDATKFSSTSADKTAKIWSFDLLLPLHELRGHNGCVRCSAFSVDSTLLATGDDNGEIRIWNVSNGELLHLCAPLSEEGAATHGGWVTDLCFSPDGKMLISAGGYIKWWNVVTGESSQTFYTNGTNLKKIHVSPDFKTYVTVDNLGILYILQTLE
# [16] = biological target: T4, Protein RecA (Mycobacterium tuberculosis, UniProt P9WHJ3); experiment: Fluorescence Cell-Free Homogeneous Dose Retest to Identify Inhibitors of RecA-Intein Splicing Activity. [Related pubchem assays (depositor defined):AID2097, AID2223, AID489010, AID492950]; format: functional
# T4 sequence (P9WHJ3 whole entry): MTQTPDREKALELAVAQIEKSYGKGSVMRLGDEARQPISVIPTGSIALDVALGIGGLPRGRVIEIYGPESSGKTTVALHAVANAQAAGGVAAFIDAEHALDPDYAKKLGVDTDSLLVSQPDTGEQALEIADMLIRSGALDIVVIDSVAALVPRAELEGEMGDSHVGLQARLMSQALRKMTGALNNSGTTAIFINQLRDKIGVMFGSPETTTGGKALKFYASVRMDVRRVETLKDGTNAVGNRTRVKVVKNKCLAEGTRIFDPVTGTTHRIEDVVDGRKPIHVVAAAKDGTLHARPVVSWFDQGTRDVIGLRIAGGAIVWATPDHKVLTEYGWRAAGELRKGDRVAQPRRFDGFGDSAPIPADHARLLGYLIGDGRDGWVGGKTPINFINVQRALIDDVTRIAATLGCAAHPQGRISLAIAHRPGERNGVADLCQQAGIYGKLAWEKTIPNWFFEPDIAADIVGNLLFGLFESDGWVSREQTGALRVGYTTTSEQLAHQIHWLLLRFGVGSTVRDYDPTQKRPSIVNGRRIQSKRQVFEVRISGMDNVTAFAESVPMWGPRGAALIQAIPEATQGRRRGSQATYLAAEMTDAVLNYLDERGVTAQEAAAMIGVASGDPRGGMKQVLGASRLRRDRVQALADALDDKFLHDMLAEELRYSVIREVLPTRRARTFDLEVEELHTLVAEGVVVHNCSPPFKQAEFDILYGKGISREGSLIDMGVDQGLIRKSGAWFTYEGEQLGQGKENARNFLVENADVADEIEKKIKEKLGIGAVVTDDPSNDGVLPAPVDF
# [17] = tested on: Streptococcus sp. 'group A'; experiment: growth inhibition of control SK(-) GAS strain, dose response, counter-screen for streptokinase expression inhibitor project, luminescence, kanamycin, BacTiterGlo, confirmation (AID 1900); format: functional, organism-based
# [18] = biological target: T5, SUMO-activating enzyme (Homo sapiens, UniProt Q9UBT2); experiment: SUMOylation inhibitor hit validation, confirmation, SUMOylation inhibitor project, biochemical, AlphaScreen (AID 2018); format: functional
# T5 sequence (Q9UBE0 whole entry): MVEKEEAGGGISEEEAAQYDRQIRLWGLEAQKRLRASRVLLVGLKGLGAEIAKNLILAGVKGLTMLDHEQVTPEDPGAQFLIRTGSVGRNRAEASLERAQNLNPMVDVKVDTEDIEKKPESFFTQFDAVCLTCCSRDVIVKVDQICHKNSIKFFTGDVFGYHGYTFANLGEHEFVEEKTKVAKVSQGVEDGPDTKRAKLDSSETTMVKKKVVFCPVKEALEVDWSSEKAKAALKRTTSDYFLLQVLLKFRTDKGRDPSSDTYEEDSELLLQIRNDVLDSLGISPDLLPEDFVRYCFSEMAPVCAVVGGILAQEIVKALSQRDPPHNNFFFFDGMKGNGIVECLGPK
# T5 sequence (Q9UBT2 whole entry): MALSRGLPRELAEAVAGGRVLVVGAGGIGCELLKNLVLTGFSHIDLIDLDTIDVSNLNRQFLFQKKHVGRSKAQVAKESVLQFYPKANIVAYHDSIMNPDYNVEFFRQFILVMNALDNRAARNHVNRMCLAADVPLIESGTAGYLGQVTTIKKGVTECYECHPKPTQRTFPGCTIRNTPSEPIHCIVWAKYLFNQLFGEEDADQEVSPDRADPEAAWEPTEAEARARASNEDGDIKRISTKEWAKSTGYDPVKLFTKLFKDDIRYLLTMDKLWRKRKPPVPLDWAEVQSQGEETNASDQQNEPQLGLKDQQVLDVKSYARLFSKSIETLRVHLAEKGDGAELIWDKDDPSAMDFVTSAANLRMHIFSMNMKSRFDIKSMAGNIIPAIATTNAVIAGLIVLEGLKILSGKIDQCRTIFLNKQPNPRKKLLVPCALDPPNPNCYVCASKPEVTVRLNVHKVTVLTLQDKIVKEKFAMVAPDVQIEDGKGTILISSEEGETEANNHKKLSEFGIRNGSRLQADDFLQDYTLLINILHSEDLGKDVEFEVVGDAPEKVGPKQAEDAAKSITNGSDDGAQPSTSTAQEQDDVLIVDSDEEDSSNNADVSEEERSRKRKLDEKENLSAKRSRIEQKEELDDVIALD
# [19] = biological target: T5, SUMO-activating enzyme; experiment: inhibitors of in vitro SUMOylation cascade, primary screen, biochemical, HTRF, uHTS (AID 2006); format: protein-complex assay
# [20] = tested on: Streptococcus; experiment: Group A Streptococcus viability loss, dose response, counter-screen for streptokinase expression inhibitor project, luminescence, BacTiterGlo (AID 1915); format: functional, organism-based;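 also: potency for reduction of bacterial viability or growth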
# [21] = biological target: Voltage-dependent T-type calcium channel subunit alpha-1H (Homo sapiens, UniProt O95180); experiment: Cav3.2 T-type channel inhibitors, cell-based, synthetic library set 1, calcium flux (AID 493022); format: functional
# Sequence of Voltage-dependent T-type calcium channel subunit alpha-1H (O95180 whole entry): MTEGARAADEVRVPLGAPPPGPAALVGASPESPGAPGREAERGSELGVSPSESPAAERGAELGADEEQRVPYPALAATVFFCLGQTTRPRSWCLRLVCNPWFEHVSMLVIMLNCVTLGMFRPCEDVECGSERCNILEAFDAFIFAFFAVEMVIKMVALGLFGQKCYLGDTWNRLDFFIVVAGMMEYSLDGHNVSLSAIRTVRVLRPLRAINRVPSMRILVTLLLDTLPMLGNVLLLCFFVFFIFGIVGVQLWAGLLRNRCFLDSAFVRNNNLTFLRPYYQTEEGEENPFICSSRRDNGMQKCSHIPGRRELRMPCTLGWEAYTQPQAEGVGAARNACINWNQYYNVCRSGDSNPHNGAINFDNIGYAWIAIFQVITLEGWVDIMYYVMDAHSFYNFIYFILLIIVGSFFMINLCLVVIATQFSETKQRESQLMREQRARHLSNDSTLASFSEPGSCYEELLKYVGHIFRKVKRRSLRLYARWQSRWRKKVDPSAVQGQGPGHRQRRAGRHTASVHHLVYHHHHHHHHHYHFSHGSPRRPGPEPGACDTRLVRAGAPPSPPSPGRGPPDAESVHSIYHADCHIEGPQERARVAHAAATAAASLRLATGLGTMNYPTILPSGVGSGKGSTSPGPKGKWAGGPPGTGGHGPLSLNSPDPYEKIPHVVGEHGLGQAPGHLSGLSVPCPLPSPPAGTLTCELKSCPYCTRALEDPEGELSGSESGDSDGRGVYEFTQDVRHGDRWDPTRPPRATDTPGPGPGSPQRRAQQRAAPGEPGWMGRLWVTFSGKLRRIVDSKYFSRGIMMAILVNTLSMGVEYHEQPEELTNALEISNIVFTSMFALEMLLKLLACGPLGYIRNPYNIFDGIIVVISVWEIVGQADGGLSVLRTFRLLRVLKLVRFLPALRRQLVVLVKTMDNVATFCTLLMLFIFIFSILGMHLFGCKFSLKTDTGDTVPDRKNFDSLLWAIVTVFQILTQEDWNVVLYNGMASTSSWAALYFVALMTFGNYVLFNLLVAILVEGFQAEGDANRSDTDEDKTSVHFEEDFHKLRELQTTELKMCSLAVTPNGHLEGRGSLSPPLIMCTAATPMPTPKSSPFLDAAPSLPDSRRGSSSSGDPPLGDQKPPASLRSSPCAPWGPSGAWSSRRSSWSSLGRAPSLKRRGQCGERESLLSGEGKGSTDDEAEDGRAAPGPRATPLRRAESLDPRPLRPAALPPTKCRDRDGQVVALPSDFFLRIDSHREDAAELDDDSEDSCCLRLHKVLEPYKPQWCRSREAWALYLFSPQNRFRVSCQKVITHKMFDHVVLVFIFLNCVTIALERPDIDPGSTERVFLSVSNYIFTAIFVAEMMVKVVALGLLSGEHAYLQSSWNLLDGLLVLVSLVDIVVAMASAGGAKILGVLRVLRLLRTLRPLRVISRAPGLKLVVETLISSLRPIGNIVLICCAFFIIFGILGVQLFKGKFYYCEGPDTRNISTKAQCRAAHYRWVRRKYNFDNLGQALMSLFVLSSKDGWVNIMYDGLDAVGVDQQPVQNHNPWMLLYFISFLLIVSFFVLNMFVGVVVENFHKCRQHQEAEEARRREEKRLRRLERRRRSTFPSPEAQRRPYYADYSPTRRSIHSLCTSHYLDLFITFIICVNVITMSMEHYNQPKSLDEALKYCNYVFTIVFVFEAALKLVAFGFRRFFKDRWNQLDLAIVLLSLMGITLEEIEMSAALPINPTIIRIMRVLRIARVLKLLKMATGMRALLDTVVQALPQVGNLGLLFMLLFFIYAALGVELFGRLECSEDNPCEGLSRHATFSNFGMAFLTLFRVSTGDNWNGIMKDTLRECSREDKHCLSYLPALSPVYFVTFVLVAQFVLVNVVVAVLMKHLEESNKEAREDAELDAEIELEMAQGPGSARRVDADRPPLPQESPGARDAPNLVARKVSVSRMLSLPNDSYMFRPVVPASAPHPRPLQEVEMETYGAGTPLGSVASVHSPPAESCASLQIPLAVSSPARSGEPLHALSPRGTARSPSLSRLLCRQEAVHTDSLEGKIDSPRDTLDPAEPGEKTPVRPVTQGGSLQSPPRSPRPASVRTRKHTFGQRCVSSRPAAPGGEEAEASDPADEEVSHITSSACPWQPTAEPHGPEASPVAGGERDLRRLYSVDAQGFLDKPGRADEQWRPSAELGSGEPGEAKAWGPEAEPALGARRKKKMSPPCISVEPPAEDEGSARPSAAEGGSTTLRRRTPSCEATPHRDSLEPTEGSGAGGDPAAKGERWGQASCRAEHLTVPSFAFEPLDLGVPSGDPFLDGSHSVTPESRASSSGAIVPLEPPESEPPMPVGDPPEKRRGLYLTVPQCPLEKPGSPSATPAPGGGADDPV
# [22] = biological target: Mu-type opioid receptor (Homo sapiens, UniProt P35372); experiment: SAR Analysis of Antagonists of the MOR Receptor using an Image-Based Assay - Set 3. [Related pubchem assays (depositor defined):AID1777, AID1785, AID1786, AID1966, AID2133, AID2136, AID2284, AID2285, AID2420]; format: functional
# Sequence of Mu-type opioid receptor (P35372 whole entry): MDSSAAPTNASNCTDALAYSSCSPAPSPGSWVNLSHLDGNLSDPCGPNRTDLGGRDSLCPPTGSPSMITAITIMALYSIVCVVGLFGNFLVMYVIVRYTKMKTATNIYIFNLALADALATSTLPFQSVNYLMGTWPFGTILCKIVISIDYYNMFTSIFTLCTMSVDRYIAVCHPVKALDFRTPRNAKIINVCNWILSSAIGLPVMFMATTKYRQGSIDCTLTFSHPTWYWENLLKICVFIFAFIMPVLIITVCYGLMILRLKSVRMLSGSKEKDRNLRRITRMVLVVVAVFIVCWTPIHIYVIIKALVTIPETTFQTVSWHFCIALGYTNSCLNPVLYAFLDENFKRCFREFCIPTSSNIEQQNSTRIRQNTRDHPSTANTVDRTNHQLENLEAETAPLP
# [23] = biological target: T6, Kappa-type opioid receptor (Homo sapiens, UniProt P41145); experiment: SAR analysis of small molecule antagonists of the kappa opioid receptor via a luminescent beta-arrestin assay - Set 6. [Related pubchem assays (depositor defined):AID1777, AID1778, AID1785, AID1786, AID1966, AID2133, AID2136, AID2285]; format: functional
# T6 sequence (P41145 whole entry): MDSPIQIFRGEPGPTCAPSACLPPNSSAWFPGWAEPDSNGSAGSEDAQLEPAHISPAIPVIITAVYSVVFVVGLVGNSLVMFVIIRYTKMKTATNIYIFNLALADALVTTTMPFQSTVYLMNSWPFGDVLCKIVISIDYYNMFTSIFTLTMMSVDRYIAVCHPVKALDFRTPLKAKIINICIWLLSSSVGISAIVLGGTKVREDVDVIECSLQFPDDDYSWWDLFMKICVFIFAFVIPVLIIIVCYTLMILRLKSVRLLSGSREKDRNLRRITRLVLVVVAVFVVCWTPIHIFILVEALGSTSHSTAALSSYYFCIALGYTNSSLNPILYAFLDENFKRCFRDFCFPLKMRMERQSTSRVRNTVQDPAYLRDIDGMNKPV
# [24] = biological target: T6, Kappa-type opioid receptor; experiment: SAR analysis of small molecule antagonists of the kappa opioid receptor via a luminescent beta-arrestin assay - Set 4. [Related pubchem assays (depositor defined):AID1777, AID1778, AID1785, AID1786, AID1966, AID2133, AID2136, AID2285]; format: functional
# [25] = biological target: Delta-type opioid receptor (Homo sapiens, UniProt P41143); experiment: SAR Analysis of Antagonists of the DOR Receptor using an Image-Based Assay - Set 3. [Related pubchem assays (depositor defined):AID1777, AID1785]; format: functional;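 also: U2OS cells expressing DOR1 and beta-arrestin GFP stimulated with 100 nM SNC80; imaging of GFP-tagged beta-arrestin moving into spots after receptor activation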
# Sequence of Delta-type opioid receptor (P41143 whole entry): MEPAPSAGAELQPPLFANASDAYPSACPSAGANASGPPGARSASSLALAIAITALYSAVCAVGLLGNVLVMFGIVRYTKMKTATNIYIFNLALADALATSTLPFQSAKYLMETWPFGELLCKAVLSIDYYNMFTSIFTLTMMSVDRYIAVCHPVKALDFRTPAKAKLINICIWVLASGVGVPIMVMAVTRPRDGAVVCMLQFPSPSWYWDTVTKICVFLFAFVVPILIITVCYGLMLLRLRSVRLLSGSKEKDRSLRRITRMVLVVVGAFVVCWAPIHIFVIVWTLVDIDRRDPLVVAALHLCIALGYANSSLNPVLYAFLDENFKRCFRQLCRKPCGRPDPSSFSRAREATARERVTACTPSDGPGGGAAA
# [26] = biological target: T6, Kappa-type opioid receptor; experiment: SAR analysis of Antagonists of the Kappa Opioid Receptor (KOR) using an Image-Based Assay - Set 4. [Related pubchem assays (depositor defined):AID1777, AID1785]; format: functional
structure (smiles),measurement,setting,value
CCOC(=O)C1(Cc2ccccc2C(F)(F)F)CCN(C2CCN(C(C)C)CC2)CC1,CC50,[1],> 133 µM (active)
same,CC50,[2],31.5 µM (active)
same,CC50,[3],21.6 µM (active)
same,IC50,[4],6.36 µM (active)
same,IC50,[5],36.5 µM (active)
same,IC50,[6],> 50 µM (active)
same,IC50,[7],18.6 µM (active)
CCOC(=O)C1=C(c2ccccc2)N=C(N)NC1c1ccc(OCc2ccc(C(=O)OC)cc2)cc1 (stereo unspecified),CC50,[8],11.8 µM (active)
same,CC50,[9],> 20 µM (active)
same,IC50,[10],> 20 µM (inactive)
same,CC50,[11],18.2 µM (active)
same,IC50,[12],62.3 µM (active)
same,IC50,[13],9.88 µM (active)
same,AC50,[14],15.6 µM (active)
same,IC50,[15],26.8 µM (active)
same,EC50,[16],11.8 µM (active)
O=C(COc1ccc(Cl)cc1)Nc1nnc(-c2ccc3c(c2)CCCC3)o1,EC50,[17],0.489 µM (active)
same,IC50,[18],> 100 µM (inactive)
same,IC50,[19],48.2 µM (active)
same,EC50,[20],1.83 µM (active)
same,EC50,[21],2.8 µM (active)
Cc1ccc(S(=O)(=O)NCc2ccc(C(=O)NCCN3CCN(c4ccccc4)CC3)cc2)cc1,IC50,[22],> 32 µM (inactive)
same,IC50,[23],> 20 µM (inactive)
same,IC50,[24],> 20 µM (inactive)
same,IC50,[25],> 32 µM (inactive)
same,IC50,[26],> 32 µM (inactive)
